Assay results taken from patent publication US8192717B2, “Composition for diagnosing amyloid-related diseases” (Nagasaki University, priority 2004, dated 2012).

Legend:
[1] = molecular target: T1, Aβ(1-40) aggregates (Homo sapiens, UniProt P05067); assay: In vitro binding of [125I]-labelled compounds to Aβ aggregates (filtration, radioactivity on filter); settings: [125I]-labelled compound; radioactivity remaining on filter in presence vs absence of Aβ aggregates
T1 construct: The amyloid β protein (Human, 1-40) [HCl form]; purchased Peptide Institute, Inc
Method: (§1) Aβ aggregates was dissolved in a buffer (pH 7.4) that contained 10 mM sodium phosphate and 1 mM EDTA, resulting in a concentration of 0.5 mg/ml. Thereafter, the obtained solution was incubated at 37° C. for 36 to 42 hours. A binding experiment was carried out using 12×75 mm borosilicate glass tubes. […] The obtained mixture was left at room temperature for 3 hours. Non-specific bond was calculated using nonradioactive compound 11 (1 μM). […] The radioactivity of a substance remaining in the filter used in filtration was measured with a γ counter. With regard to [^125I] compound 11, the Kd value thereof was calculated by the Scatchard analysis. In addition, using [^125I] compound 11 as a radioactive ligand, an inhibition experiment was carried out by the following method using the Aβ(1-40) aggregates and the Aβ(1-42) aggregates. […] The obtained mixture was left at room temperature for 3 hours. Non-specific bond was calculated using nonradioactive compound 11 (1 μM). The 50% inhibitory concentration was calculated using GraphPad Prism (GraphPad Software), and the inhibition constant (Ki value) was calculated according to the formula of Cheng-Prusoff, Ki=IC50/(1+[L]/Kd). In this formula, [L] represents the concentration of [^125I] compound 11, and Kd represents the dissociation constant of [^125I] compound 11 to the Aβ(1-40) aggregates and the Aβ(1-42) aggregates.

[2] = molecular target: T1, Aβ(1-40) aggregates; assay: Inhibition experiment using [125I] compound 11 as radioactive ligand, Aβ(1-40) aggregates; assay type: binding; settings: radioligand [125I] compound 11; Cheng-Prusoff; read-out: Inhibition constant (Ki, nM) Aβ(1-40)
Method: as §1

[3] = molecular target: T2, Aβ(1-42) aggregates (Homo sapiens, UniProt P05067); assay: Inhibition experiment using [125I] compound 11 as radioactive ligand, Aβ(1-42) aggregates; assay type: binding; settings: radioligand [125I] compound 11; Cheng-Prusoff; read-out: Inhibition constant (Ki, nM) Aβ(1-42)
T2 construct: the amyloid β protein (Human, 1-42) [TFA form]; purchased Peptide Institute, Inc
Method: as §1

[4] = Radioactivity distribution in mouse body after intravenous administration of radioiodine labeled forms; settings: normal mice, intravenous, [125I]-labelled form
Method: Thereafter, 100 μl (0.5 to 1 μCi) of each labeled form was intravenously administered to each group consisting of three to five 5-week-old ddY male mice (25 to 30 g). 2, 10, 30, and 60 minutes after the intravenous administration, such mice were decapitated, and blood was collected. Thereafter, organs were excised, and the weight and radioactivity thereof were then measured.

[5] = tested on: senile plaque amyloid, cerebrovascular amyloid and neurofibrillary degeneration in brain tissues of patient with Alzheimer's disease; assay: Binding experiment using brain tissues of patient with Alzheimer's disease (fluorescence microscopy of sections); parameters: species or system human; settings: 100 nM, room temperature, 10 minutes; temporal lobe sections
Method: Tissues at the temporal lobe site of the brain of a patient with Alzheimer's disease were fixed with formalin, and were then embedded in paraffin. A section with a thickness of 5 μm was prepared from the paraffin block, and the paraffin was then removed by an ordinary treatment with xylene and ethanol (Lippa, C. F., Nee, L. E., Mori, H & George-Hyslop, P. (1998) The Lancet 352:1117-1118). As the final stage, neutralization was carried out with a phosphate buffer. Thereafter, compounds 10, 11, 19, and 20 were reacted in a concentration of 100 nM at room temperature for 10 minutes. Thereafter, the reaction product was washed with a phosphate buffer three times, and then with 50% ethanol three time, so as to terminate the reaction. Thereafter, the resultant was dehydrated by treatments with alcohol and xylene, followed by embedding with Entellan(R) new. The bond of the above compound was confirmed by image observation with a CCD camera (M-3204C) included with a fluorescence microscope (Olympus BX50).

[6] = molecular target: T1, Aβ(1-40) aggregates; assay: Saturation experiment of [125I] compound 11 with Scatchard analysis, Aβ(1-40) aggregates; assay type: binding; settings: read-out: dissociation equilibrium constant (Kd value)
Method: as §1

[7] = molecular target: T2, Aβ(1-42) aggregates; assay: Saturation experiment of [125I] compound 11 with Scatchard analysis, Aβ(1-42) aggregates; assay type: binding; settings: read-out: dissociation equilibrium constant (Kd value)
Method: as §1

T2 sequence (P05067 672-713 limits assumed): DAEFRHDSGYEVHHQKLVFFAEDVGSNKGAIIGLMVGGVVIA
T1 sequence (P05067 672-711 limits assumed): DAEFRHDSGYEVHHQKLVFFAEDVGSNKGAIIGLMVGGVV

Structure (SMILES)	bindability to the Aβ aggregates [1]	washing out / disappearance of radioactivity from the brain [4]	Ki [2]	Ki [3]	other results
CNc1ccc(-c2cc(=O)c3cc(I)ccc3o2)cc1 [compound 10, 6-iodo-4′-methylaminoflavone]	high bindability	–	22.6 ± 3.4 nM	30 ± 3.4 nM	rate of disappearance from the brain (rank among flavone derivatives) [4]: almost the same as that of [^125I] compound 11; recognition of and binding to amyloid plaque, senile plaque having a neurodegenerative projection, cerebrovascular amyloid and neurofibrillary degeneration [5]: recognize amyloid plaque, senile plaque having a neurodegenerative projection, cerebrovascular amyloid and neurofibrillary degeneration, and bind thereto
CN(C)c1ccc(-c2cc(=O)c3cc(I)ccc3o2)cc1 [compound 11, 6-iodo-4′-dimethylaminoflavone]	high bindability	–	13.2 ± 0.2 nM	15.6 ± 2.4 nM	Kd [6]: 0.0123 ± 0.0023 µM; Kd [7]: 0.0176 ± 0.0057 µM; bindability to senile plaque having a neurodegenerative projection and to neurofibrillary degeneration [5]: has bindability; binding to cerebrovascular amyloid [5]: specifically binds to cerebrovascular amyloid; binding to senile plaque [5]: specifically binds to senile plaque
COc1ccc(-c2cc(=O)c3cc(I)ccc3o2)cc1 [compound 19, 6-iodo-4′-methoxyflavone]	high bindability	–	29 ± 3.2 nM	38.3 ± 8.1 nM	rate of disappearance from the brain (rank among flavone derivatives) [4]: fastest; recognition of and binding to amyloid plaque, senile plaque having a neurodegenerative projection, cerebrovascular amyloid and neurofibrillary degeneration [5]: recognize amyloid plaque, senile plaque having a neurodegenerative projection, cerebrovascular amyloid and neurofibrillary degeneration, and bind thereto
Nc1ccc(C=Cc2cc(=O)c3cc(I)ccc3o2)cc1 [compound 46, 6-iodo-4′-aminostyrylchromone]	high binding affinity	rapid disappearance of radioactivity	–	–	ability to transfer to the brain [4]: 4.9 % ID/g
CN(C)c1ccc(C=Cc2cc(=O)c3cc(I)ccc3o2)cc1 [compound 48, 6-iodo-4′-dimethylaminostyrylchromone]	high binding affinity	–	–	–	ability to transfer to the brain (in words) [4]: low; radioactivity retention in the blood [4]: high radioactivity retention ability in the blood

Continued, in another order:

bindability to the Aβ aggregates [1]	washing out / disappearance of radioactivity from the brain [4]	Structure (SMILES)	Ki [2]	Ki [3]	other results
high binding affinity	washed out rapidly	COc1cc(/C=C/C(=O)c2cccc(I)c2)ccc1O [compound 31, (E)-3-(4-hydroxy-3-methoxyphenyl)-1-(3-iodophenyl)propan-2-en-1-one]	–	–	ability to transfer to the brain (in words) [4]: transfers to the brain
high binding affinity	–	CN(C)c1ccc(/C=C/C(=O)c2ccc(I)cc2)cc1 [compound 36, (E)-3-(4-(dimethylamino)phenyl)-1-(4-iodophenyl)propan-2-en-1-one]	–	–	–
high binding affinity	rapid disappearance of radioactivity	CNc1ccc(C=Cc2cc(=O)c3cc(I)ccc3o2)cc1 [compound 47, 6-iodo-4′-methylaminostyrylchromone]	–	–	ability to transfer to the brain [4]: 3.0 % ID/g
